In patent US6812258B2, “Cancer treatment composition and method using natural plant essential oils” (Ecosmart Technologies, Inc., priority 1998, dated 2004):
Read-outs that look alike come from different tables or passages of the source.

Tests used:
MCF-7 cells = test: Dose-response effect on E2-induced cell growth, viable cell count (trypan blue, haemocytometer); assay type: cell-based, human
Procedure: MCF-7 cells were cultured in growth medium supplemented with 10% fetal bovine serum (FBS). At 85% confluence, cells were sub-cultured in 6 well petri-dishes and supplemented with 5% FBS serum stripped medium, phenol red free for 24 hours prior to the treatment of different concentrations of the test chemicals. After 5 days of treatment cells were trypsinized, collected using Eppendorf microcentrifuge. The cell pellets were resuspended in 1% trypan blue and three aliquots (10 ul each) of the viable cell suspension were counted using a haemocytometer assay. Each sample was then counted three times and the data shown is the average of three counts. These test chemicals were tested in the presence of 10 nM estrogen (=2.7 ng estrogen/ml). Two wells per test concentration were used. This experiment was repeated two times. Control received solvent only at <0.1% ethanol.

[1] = system: Human Epithelial Breast Cancer Cells (MCF-7); test: Antiproliferative effect, 3H-thymidine incorporation in MCF-7 cells with and without estrogen; assay type: cell-based; details: for activity at 50 µg/mL: Homo sapiens, MCF7, 24 h
Procedure: (§1) MCF-7 cells were cultured in growth medium supplemented with 10% fetal bovine serum (FBS). At 85% confluence, cells were sub-cultured in 5% FBS serum stripped medium, phenol red free for 24 hours prior to the treatment of the test chemical. After 24 hours of treatment cell proliferation was measured using ^3H-thymidine incorporation. These test chemicals were tested in the presence and absence of estrogen to address if they have anti-estrogenic activity in addition to their antiproliferative effect. The study was done in triplicate and a control was used with solvent only. Control received solvent only at <0.1% ethanol. Estrogen was tested at 1 nM (=0.27 ng E2/ml). Exemplary plant essential oil compounds were tested at 50 ug/ml.
as §1, with “(0.27” for “(=0.27”, “Plant” for “Exemplary plant”

[2] = test chemical 50 μg/ml + E2 10 nM, Day 5
[3] = Table 1, test chemical 50 ug/ml + estrogen 1 nM, 24 hours treatment, read-out: 3H-thymidine incorporation % of control value
[4] = Table 1, test chemical 50 ug/ml alone, 24 hours treatment, read-out: 3H-thymidine incorporation % of control value
[5] = Table 1, test chemical 50 ug/ml + estrogen 1 nM, 24 hours treatment
[6] = Table 1, test chemical 50 ug/ml alone, 24 hours treatment
[7] = Table 2, test chemical 50 ug/ml + estrogen 1 nM, 24 hours treatment
[8] = Table 2, test chemical 50 ug/ml alone, 24 hours treatment
[9] = test chemical 1 μg/ml + E2 10 nM, Day 5
[10] = test chemical 5 μg/ml + E2 10 nM, Day 5
[11] = test chemical 10 μg/ml + E2 10 nM, Day 5
[12] = test chemical 20 μg/ml + E2 10 nM, Day 5
[13] = Table 2, test chemical 50 ug/ml + estrogen 1 nM, 24 hours treatment, read-out: 3H-thymidine incorporation % of control value
[14] = Table 2, test chemical 50 ug/ml alone, 24 hours treatment, read-out: 3H-thymidine incorporation % of control value
[15] = Table 1, estrogen alone 1 nM, 24 hours treatment
[16] = Table 2, estrogen alone 1 nM, 24 hours treatment
[17] = read-out: 3H-thymidine incorporation % of control value, Table 1, test chemical 50 ug/ml + estrogen 1 nM, 24 hours treatment
[18] = read-out: 3H-thymidine incorporation % of control value, Table 1, test chemical 50 ug/ml alone, 24 hours treatment

OCc1ccccc1 [benzyl alcohol]
% anti-E2 (MCF-7 cells; [2]): 35.40%
Cell count average (MCF-7 cells; [2]): 21.0 × (10^4)/ml
Cell count well #1 (MCF-7 cells; [2]): 24 × (10^4)/ml
Cell count well #2 (MCF-7 cells; [2]): 18 × (10^4)/ml

COC(=O)c1ccccc1O [Methyl salicylate]
activity at 50 µg/mL [1, 3]: 168%
activity at 50 µg/mL [1, 4]: 107%
3H-thymidine incorporation % of estrogen value [1, 5]: 106%
3H-thymidine incorporation dpm/ug protein [1, 5]: 693.9 dpm/ug protein
3H-thymidine incorporation dpm/ug protein [1, 6]: 444.0 dpm/ug protein

CC1=CC[C@H](C(C)C)C=C1 [α-phellandrene]
3H-thymidine incorporation % of control value [1, 7]: 145.0%
3H-thymidine incorporation % of estrogen value [1, 7]: 96%
3H-thymidine incorporation dpm/μg protein [1, 7]: 635.3 dpm/μg protein
3H-thymidine incorporation % of control value [1, 8]: 79.5%
3H-thymidine incorporation dpm/μg protein [1, 8]: 348.4 dpm/μg protein

C/C=C/c1ccc(OC)cc1 [Trans-anethole]
activity at 50 µg/mL [1, 3]: 142%
activity at 50 µg/mL [1, 4]: 105%
3H-thymidine incorporation % of estrogen value [1, 5]: 89%
3H-thymidine incorporation dpm/ug protein [1, 5]: 589.8 dpm/ug protein
3H-thymidine incorporation dpm/ug protein [1, 6]: 434.9 dpm/ug protein

Cc1ccc(C(C)C)c(O)c1 [Thymol]
activity at 50 µg/mL [1, 3]: 26%
activity at 50 µg/mL [1, 4]: 23%
3H-thymidine incorporation % of estrogen value [1, 5]: 16%
3H-thymidine incorporation dpm/ug protein [1, 5]: 108.2 dpm/ug protein
3H-thymidine incorporation dpm/ug protein [1, 6]: 97.3 dpm/ug protein
protection against the E2-induced abnormal growth in cancer breast cells (MCF-7 cells; 5 ug/ml, summary of Table 3): 40%
% anti-E2 (MCF-7 cells; [9]): 00.00%
Cell count average (MCF-7 cells; [9]): 32.0 × (10^4)/ml
Cell count well #1 (MCF-7 cells; [9]): 32 × (10^4)/ml
Cell count well #2 (MCF-7 cells; [9]): 32 × (10^4)/ml
% anti-E2 (MCF-7 cells; [10]): 40.60%
Cell count average (MCF-7 cells; [10]): 19.0 × (10^4)/ml
Cell count well #1 (MCF-7 cells; [10]): 20 × (10^4)/ml
Cell count well #2 (MCF-7 cells; [10]): 18 × (10^4)/ml
% anti-E2 (MCF-7 cells; [11]): 62.50%
Cell count average (MCF-7 cells; [11]): 12.0 × (10^4)/ml
Cell count well #1 (MCF-7 cells; [11]): 12 × (10^4)/ml
Cell count well #2 (MCF-7 cells; [11]): 12 × (10^4)/ml
% anti-E2 (MCF-7 cells; [12]): 62.50%
Cell count average (MCF-7 cells; [12]): 12.0 × (10^4)/ml
Cell count well #1 (MCF-7 cells; [12]): 10 × (10^4)/ml
Cell count well #2 (MCF-7 cells; [12]): 14 × (10^4)/ml

CC12CCC(CC1)C(C)(C)O2 [Eucalyptol]
activity at 50 µg/mL [1, 3]: 137%
activity at 50 µg/mL [1, 4]: 96%
3H-thymidine incorporation % of estrogen value [1, 5]: 86%
3H-thymidine incorporation dpm/ug protein [1, 5]: 568.0 dpm/ug protein
3H-thymidine incorporation dpm/ug protein [1, 6]: 398.0 dpm/ug protein

Cc1ccc(C(C)C)cc1 [p-cymene]
activity at 50 µg/mL [1, 3]: 152%
activity at 50 µg/mL [1, 4]: 101%
3H-thymidine incorporation % of estrogen value [1, 5]: 96%
3H-thymidine incorporation dpm/ug protein [1, 5]: 632.0 dpm/ug protein
3H-thymidine incorporation dpm/ug protein [1, 6]: 419.0 dpm/ug protein

CC1=CCC(C(C)(C)O)CC1 (stereo not drawn) [α-terpineol]
activity at 50 µg/mL [1, 3]: 164%
activity at 50 µg/mL [1, 4]: 116%
activity at 50 µg/mL [1, 13]: 145%
activity at 50 µg/mL [1, 14]: 112%
3H-thymidine incorporation % of estrogen value [1, 5]: 103%
3H-thymidine incorporation dpm/ug protein [1, 5]: 679.1 dpm/ug protein
3H-thymidine incorporation dpm/ug protein [1, 6]: 480.5 dpm/ug protein
3H-thymidine incorporation % of estrogen value [1, 7]: 96%
3H-thymidine incorporation dpm/μg protein [1, 7]: 636.7 dpm/μg protein
3H-thymidine incorporation dpm/μg protein [1, 8]: 490.7 dpm/μg protein

OC/C=C/c1ccccc1 [Cinnamic alcohol]
activity at 50 µg/mL [1, 3]: 53%
activity at 50 µg/mL [1, 4]: 4%
3H-thymidine incorporation % of estrogen value [1, 5]: 34%
3H-thymidine incorporation dpm/ug protein [1, 5]: 220.8 dpm/ug protein
3H-thymidine incorporation dpm/ug protein [1, 6]: 18.5 dpm/ug protein

Estrogen [reference compound]
3H-thymidine incorporation % of estrogen value ([1]; Table 1, estrogen alone 1 nM (reference)): 100%
3H-thymidine incorporation % of control value [1, 15]: 158%
3H-thymidine incorporation dpm/ug protein [1, 15]: 658.6 dpm/ug protein
3H-thymidine incorporation % of estrogen value ([1]; Table 2, estrogen alone 1 nM (reference)): 100%
3H-thymidine incorporation % of control value [1, 16]: 151.6%
3H-thymidine incorporation dpm/μg protein [1, 16]: 664.2 dpm/μg protein
Cell count % of control (MCF-7 cells; E2 10 nM alone, Day 5): 145%
Cell count average (MCF-7 cells; E2 10 nM alone, Day 5): 32.0 × (10^4)/ml
Cell count well #1 (MCF-7 cells; E2 10 nM alone, Day 5): 36 × (10^4)/ml
Cell count well #2 (MCF-7 cells; E2 10 nM alone, Day 5): 28 × (10^4)/ml

Cc1ccc(C(C)C)cc1O [Carvacrol]
activity at 50 µg/mL [1, 17]: 43%
activity at 50 µg/mL [1, 18]: 50%
3H-thymidine incorporation % of estrogen value [1, 5]: 28%
3H-thymidine incorporation dpm/ug protein [1, 5]: 181.7 dpm/ug protein
3H-thymidine incorporation dpm/ug protein [1, 6]: 207.2 dpm/ug protein

C=CCc1ccc(O)c(OC)c1 [Eugenol]
activity at 50 µg/mL [1, 17]: 70%
activity at 50 µg/mL [1, 18]: 52%
3H-thymidine incorporation % of estrogen value [1, 5]: 44%
3H-thymidine incorporation dpm/ug protein [1, 5]: 289.1 dpm/ug protein
3H-thymidine incorporation dpm/ug protein [1, 6]: 215.6 dpm/ug protein
protection against the E2-induced abnormal growth in cancer breast cells (MCF-7 cells; 1 ug/ml, summary of Table 3): 35%
% anti-E2 (MCF-7 cells; [9]): 25.00%
Cell count average (MCF-7 cells; [9]): 24.0 × (10^4)/ml
Cell count well #1 (MCF-7 cells; [9]): 19 × (10^4)/ml
Cell count well #2 (MCF-7 cells; [9]): 29 × (10^4)/ml
% anti-E2 (MCF-7 cells; [10]): 41.70%
Cell count average (MCF-7 cells; [10]): 19.0 × (10^4)/ml
Cell count well #1 (MCF-7 cells; [10]): 19 × (10^4)/ml
Cell count well #2 (MCF-7 cells; [10]): 19 × (10^4)/ml
% anti-E2 (MCF-7 cells; [11]): 50.00%
Cell count average (MCF-7 cells; [11]): 16.0 × (10^4)/ml
Cell count well #1 (MCF-7 cells; [11]): 18 × (10^4)/ml
Cell count well #2 (MCF-7 cells; [11]): 14 × (10^4)/ml
% anti-E2 (MCF-7 cells; [12]): 60.40%
Cell count average (MCF-7 cells; [12]): 13.0 × (10^4)/ml
Cell count well #1 (MCF-7 cells; [12]): 10 × (10^4)/ml
Cell count well #2 (MCF-7 cells; [12]): 16 × (10^4)/ml

C=C(C)[C@H]1CC=C(C)CC1 [R-(+)-Limonene]
3H-thymidine incorporation % of control value [1, 7]: 119.3%
3H-thymidine incorporation % of estrogen value [1, 7]: 79%
3H-thymidine incorporation dpm/μg protein [1, 7]: 522.6 dpm/μg protein
3H-thymidine incorporation % of control value [1, 8]: 89.7%
3H-thymidine incorporation dpm/μg protein [1, 8]: 393.1 dpm/μg protein

COc1ccccc1O [Guaiacol]
activity at 50 µg/mL [1, 13]: 180%
activity at 50 µg/mL [1, 14]: 163%
3H-thymidine incorporation % of estrogen value [1, 7]: 119%
3H-thymidine incorporation dpm/μg protein [1, 7]: 788.8 dpm/μg protein
3H-thymidine incorporation dpm/μg protein [1, 8]: 712.3 dpm/μg protein

O=C/C=C\c1ccccc1 [cinnamic aldehyde]
control against the E2-induced abnormal growth in cancer breast cells (MCF-7 cells; 50 ug/ml, summary of Table 3): approximately 96%
% anti-E2 (MCF-7 cells; [2]): 96.90%
Cell count average (MCF-7 cells; [2]): 01.0 × (10^4)/ml
Cell count well #1 (MCF-7 cells; [2]): 00 × (10^4)/ml
Cell count well #2 (MCF-7 cells; [2]): 02 × (10^4)/ml

CC(C)=CCCC(C)CC=O (stereo not drawn) [Citronellal]
activity at 50 µg/mL [1, 3]: 69%
activity at 50 µg/mL [1, 4]: 20%
3H-thymidine incorporation % of estrogen value [1, 5]: 43%
3H-thymidine incorporation dpm/ug protein [1, 5]: 284.0 dpm/ug protein
3H-thymidine incorporation dpm/ug protein [1, 6]: 85.2 dpm/ug protein
